The record followed here is patent publication US20190083495A1, “Methods Of Preventing Or Reducing A Fibrotic Response Using CSF1R Inhibitors” (Massachusetts Institute of Technology, priority 2016, published 2019).

For data set [1], the system named is C57BL/6 mice. Nature of the data set: Peritoneal lavage IP immune cell counts and FACS macrophage phenotype. The data set is classed as in vivo.
Protocol: Single-cell suspensions of freshly excised tissues were prepared using a gentleMACS Dissociator (Miltenyi Biotec, Auburn, Calif.) according to the manufacturer's protocol. Single-cell suspensions were prepared in a passive PEB dissociation buffer (1×PBS, pH 7.2, 0.5% BSA, and 2 mM EDTA) and suspensions were passed through 70 μm filters (Cat. #22363548, Fisher Scientific, Pittsburgh, Pa.). […] All tissue and material sample-derived, single-cell populations were then subjected to red blood cell lysis with 5 ml of 1×RBC lysis buffer (Cat. #00-4333, eBioscience, San Diego, Calif., USA) for 5 min at 4° C. The reaction was terminated by the addition of 20 ml of sterile 1×PBS. The cells remaining were centrifuged at 300-400g at 4° C. and resuspended in a minimal volume (˜50 μl) of eBioscience Staining Buffer (cat. #00-4222) for antibody incubation. […] For alpha smooth muscle actin (fibrosis) analysis, additional cell aliquots were also fixed in 1% paraformaldehyde and permeabilized with 0.1% triton X-100 before being stained with Cy3-conjugated anti-mouse αSM actin antibody (1:100) (Sigma Aldrich, St. Louis, Mo.). […]
For data set [2], the system named is reactive oxygen specie (ROS). Nature of the data set: ROS activity assessment of protein lysates from retrieved alginate spheres. Conditions: lysates from alginate spheres 14 days after IP implantation, two ROS substrates, vs untreated and vehicle. The data set is classed as in vivo, C57BL/6 mice.
Data set [3] deals with C57BL/6 mice. Nature of the data set: NanoString expression analysis of mouse cytokines and cytokine receptors. In kind it is in vivo. On the procedure: For targeted macrophage depletions, clodrosome (200 μL/mouse) (Encapsula Nano Sciences, Nashville, Tenn.) were injected intraperitoneally starting at −3 days (prior to implantation, day 0), and for every 7 days thereafter (so days −3, 4, and 11). To achieve neutrophil depletion, affinity purified anti-Ly6g (Clone 1A8) antibody (250 ug/mouse) (BioLegend, San Diego, Calif.) was administered also starting at day −3, and every 3 days thereafter (except the day of implantation). For the combination therapy, in order to avoid drug-antibody interactions, each agent was administered 4 hours apart from one another. To neutralize secreted CXCL13, anti-CXCL13 antibody (mAB470, R&D Systems) was injected i.p. in sterile 1×PBS at a dose of 100 μg/mouse, once every 3 days, starting 3 days prior to implantation as well. […]
RNAs for mock-implanted (saline) treated controls, or for 500 μm alginate sphere-bearing C57BL/6 mouse strains (n=4/group), including wild type, knockouts, and serially immune depleted wild type mice, were isolated from tissue samples taken at various time points after implantation, as described. […] In general, respective RNAs were quantified, normalized to the appropriate loading concentration (100 ng/μl), and then 500 ng of each sample was processed according to NanoString manufacturer protocols for expression analysis via our customized multiplexed total (known) mouse cytokine and cytokine receptor expression panel, used for both immune strain comparisons with alginate, and material class comparisons just the wild type C57BL/6 strain. […] RNA levels (absolute copy numbers) were obtained following nCounter (NanoString Technologies Inc., Seattle, Wash.) quantification, and group samples were analyzed using nSolver analysis software (NanoString Technologies Inc., Seattle, Wash.).

In data set [4] the test system is Peritoneal exudate macrophages. Nature of the data set: Phagocytosis assay with fluorospheres. In kind it is cell-based, C57BL/6 mice. The settings on record: macrophages from treated mice, 90 minutes with fluorospheres, vs vehicle. The source says: For in vivo wound healing: C57BL/6 mice were anesthetized (same as above) and shaved, and skin incisions 1.5 cm in length were made along the midline. Each incision was then wound clipped shut for both vehicle and daily GW2580-treated C57BL/6 mice. Wound clips were removed and then replaced each imaging day up until day 7 (required to maintain them up until at least this time), after which clips were left off completely. Photos were acquired on days 0, 1, 4, 7, 10, and 14 post-incision. After 14 days, mice were sacrificed, and skin samples were prepared for histological assessment (H&E and Masson's Trichrome) of both vehicle and GW2580 treatment groups. Cross-sections through the incision line were generated to assess the level of in vivo healing following a 14-day treatment regimen. For IP innate immune cell counts, FACS, and phagocytosis assays: cells were isolated by peritoneal lavage with 8 mL DPBS, diluted into RPMI, and then subsequently counted, and aliquoted either for staining and FACS analysis (as described above), or for phagocytosis assays. […] Following appropriate incubation times, samples were read in a black-wall 96-well plate with a Tecan fluorescent-capable Infinite M1000 plate reader.

Where [5] appears, read: RNA extracts 14 days post-implant, alginate.

On to `COc1ccc(COc2ccc(Cc3cnc(N)nc3N)cc2OC)cc1` [GW2580], for which the “IP macrophage phenotype (CD68 & CD11b staining)” value with C57BL/6 mice [1] (peritoneal lavage after 4 and 14 days of daily treatment, vs vehicle) is “shifted (decreased CD68 & CD11b intensities)”. Also, the “overall cell numbers in the peritoneal exudate” value in the data set with C57BL/6 mice [1] (vs untreated and vehicle-treated) was “unchanged”. In data set [2], the ROS activity result is recorded as “no differences”. Also, in the data set with C57BL/6 mice [3] (setting [5]), the “expression of macrophage-associated (downstream) factors (FIG. 13F)” value was “inhibited” and the “expression of macrophage-specific factors (FIG. 13D)” value was “inhibited”. Also, the “expression of non-immune-associated upstream inflammation-associated gene family (FIG. 18B)” value in the data set with C57BL/6 mice [3] (alginate-implanted mice, 14 days) was “decreased back to mock implanted (saline) control levels”. In addition, the phagocytic activity entry in data set [4] is listed as “no significant differences”.
